These results are taken from US6924298B2, “2-(3,5-Disubstituted-4-pyridyl)-4-(thienyl, thiazolyl or arylphenyl)-1,3-oxazoline compounds” (Dow AgroSciences LLC, priority 2000, dated 2005).

What all share (assay type): in vivo
Assay [1] deals with beet armyworm (Spodoptera exigua). As to the kind of experiment: Insecticidal test for beet armyworm, treated lepidopteran diet. To be noted: Spodoptera exigua, 120 h; 400 ppm, treated diet surface, second-instar larvae, 5 days; read-out: BAW: activity at 400 ppm against beet armyworm (% Control rating). How it is done: (§1) Insecticidal Test for Tobacco Budworm (Heliothis virescens), Beet Armyworm (Spodoptera exigua), and Cabbage Looper (Trichoplusia ni).
(§2) To prepare the test solution, the test compound was formulated at 400 ppm in 7.5 mL of 2 acetone:1 tap water. 250 μL of the test solution was pipetted upon the surface of 8 mL of lepidopteran diet (modified Shorey) contained in each of five one-ounce plastic cups (one cup=1 replication). A second-instar beet armyworm was placed upon the treated diet in each cup once the solvent had air-dried. The solutions remaining after completing applications to the one-ounce cups were then used as leaf-dip solutions for 3.5 cm leaf discs cut from cabbage leaves and cotton cotyledons. Five discs of each type of plant were dipped until thoroughly coated into each rate of each compound (=5 replications of each treatment). After air-drying, the treated leaf discs were placed individually into one-ounce plastic cups. Each dried, treated cotton cotyledon disc was infested with a 2nd instar tobacco budworm larva, and each cabbage leaf disc was infested with a 2nd instar cabbage looper larva. Cups containing the treated substrates and larvae were capped and then held in a growth chamber at 25° C., 50-55% RH, and 14 hr light: 10 hr dark for 5 days.

In assay [2] the test system is cabbage looper (Trichoplusia ni). The assay can be described thus: Insecticidal test for cabbage looper, treated cabbage leaf disc. To be noted: Trichoplusia ni, foliar, 120 h; 400 ppm, leaf-dip cabbage leaf disc, 2nd instar larvae, 5 days; read-out: CL: activity at 400 ppm against cabbage looper (% Control rating). How it is done:
as §1, §2

For assay [3], the system named is tobacco budworm (Heliothis virescens). As to the kind of experiment: Insecticidal test for tobacco budworm, treated cotton cotyledon leaf disc. The note with it: Heliothis virescens, foliar, 120 h; 400 ppm, leaf-dip cotton cotyledon disc, 2nd instar larvae, 5 days; read-out: TBW: activity at 400 ppm against tobacco budworm (% Control rating). How it is done: as §1, §2

The subject of assay [4] is two-spotted spider mite (Tetranychus urticae). As to the kind of experiment: Insecticidal test for two-spotted spider mite, ovicide method on cotton leaf discs. The note with it: Tetranychus urticae, foliar, 144 h, hatched larvae after 6 days, read-out: SM: activity against two-spotted spider mite (% Control rating). How it is done: Insecticidal Test for Two-Spotted Spider Mite (Tetranychus urticae) Ovicide Method: Ten adult female two-spotted spider mites were placed on eight 2.2 cm leaf discs of cotton leaf, allowed to oviposit over 24 hours, and thereafter removed. […] Discs were placed on an agar substrate and held at 24° C. and 90% RH for 6 days.

Assay [5] has as its system cotton aphid (Aphis gossypii). As to the kind of experiment: Insecticidal test for cotton aphid, spray on infested squash cotyledons. To be noted: Aphis gossypii, 72 h; 50 ppm spray, squash cotyledons, all life stages, 3 days; read-out: CA: activity at 50 ppm against cotton aphid (% Control rating). As for the experimental part: Insecticidal Test for Cotton Aphid (Aphis gossypii)
To prepare spray solutions, 1 mg of each test compound was dissolved into 1 mL of a 90:10 acetone:ethanol solvent. This 1 mL of chemical solution was added to 19 mL of water containing 0.05% Tween 20 surfactant to produce a 50 ppm spray solution.
Squash cotyledons were infested with cotton aphid (all life stages)16-20 hours prior to application of spray solution. The solution was sprayed on both sides of each infested squash cotyledon (0.5 mL×2 each side) with a sweeping action until runoff. The plants were allowed to air dry and held for 3 days in a controlled room at 26° C. and 40% RH after which time the test was graded. Grading was by actual count using a dissecting microscope and comparison of test counts to the untreated check. Results are given in Tables 1-4 as percent control based on population reduction versus the untreated.

Assay [6] has as its system sweetpotato whitefly (Bemisia tabacia). As to the kind of experiment: Insecticidal test for sweetpotato whitefly, spray on cotton plants. To be noted: 312 h, 200 ppm spray, large nymphs counted after 13 days, read-out: WF: activity at 200 ppm against whitefly (% Control rating). How it is done:
Insecticidal Test for Sweetpotato Whitefly (Bemisia tabacia)
Four mg of each test compound was dissolved by adding 4 mL of a 90:10 acetone:ethanol solvent mixture to the vial containing the sample compound. This solution was added to 16 mL of water containing 0.05% Tween 20 surfactant to produce 20 mL of a 200 ppm spray solution.
Five-week-old cotton plants reared in a greenhouse were stripped of all foliage except for the two uppermost true leaves that were greater than 5 cm in diameter.
These plants were then placed into a laboratory colony of whiteflies for two days for oviposition by the colony females. All whiteflies were then removed from the test plants with pressurized air. The spray solution was then applied to the test plants with a hand-held syringe fitted with hollow cone nozzle. One mL of spray solution was applied to each leaf top and bottom for a total of 4 mL per plant. Four replications of each test compound utilized a total of 16 mL spray solution. Plants were air dried and then placed in a holding chamber (28° C. and 60% RH) for 13 days. Compound efficacy was evaluated by counting, under an illuminated magnifying glass, the number of large nymphs (3rd-4th instar) per leaf.
Percent control based on reduction of large nymphs of a test compound compared to solution-only (no test compound) sprayed plants is reported in Tables 1-4.

As for `CCOc1ccc(-c2ccc(C3COC(c4c(Cl)cncc4Cl)=N3)cc2)cc1` (stereo not drawn) [Compound 12, 2-(3,5-dichloro-4-pyridinyl)-4-(4-(4-ethoxyphenyl)phenyl)oxazoline], the pest or weed control at 400 ppm in assay [1] fell in the range of 90 to 100%; in assay [2], 60 to 69%; in assay [3], 80 to 89%. Moreover, the pest or weed control in assay [4] lay within 90 to 100%. Moreover, the pest or weed control at 50 ppm in assay [5] lay in the range of 80 to 89%. Further, the pest or weed control at 200 ppm in assay [6] is 80 to 89%.
